Source: ChEMBL document CHEMBL1777754, “Synthesis and crystallographic analysis of new sulfonamides incorporating NO-donating moieties with potent antiglaucoma action” (Bioorg Med Chem Lett, 2011)

Key:
Carbonic anhydrase 4 = Carbonic anhydrase 4 (Homo sapiens, UniProt P22748)
Description: Inhibition of human CA4 by CO2 hydration assay

Oryctolagus cuniculus [1] = assay: Antiglaucoma activity in New Zealand rabbits assessed as inhibition of carbomer-induced ocular hypertension at 2 % in 50 uL administered into eye after 2 to 3 weeks of carbomer challenge (reference value: 34.2 +/- 1.4 mmHg); type: functional
Carbonic anhydrase 9 = Carbonic anhydrase 9 (Homo sapiens, UniProt Q16790)
Description: Inhibition of human recombinant CA9 catalytic domain by CO2 hydration assay

Carbonic anhydrase 2 = Carbonic anhydrase 2 (Homo sapiens, UniProt P00918)
Description: Inhibition of human CA2 by CO2 hydration assay

Carbonic anhydrase 12 = Carbonic anhydrase 12 (Homo sapiens, UniProt O43570)
Description: Inhibition of human recombinant CA12 catalytic domain by CO2 hydration assay

[2] = Solubility of the compound in water; type: physicochemical; conditions: buffer
Carbonic anhydrase 1 = Carbonic anhydrase 1 (Homo sapiens, UniProt P00915)
Description: Inhibition of human CA1 by CO2 hydration assay

Oryctolagus cuniculus [3] = assay: Antiglaucoma activity in New Zealand rabbits assessed as inhibition of carbomer-induced ocular hypertension at 2 % in 50 uL administered into eye after 2 to 3 weeks of carbomer challenge (reference value: 35.3 +/- 1.2 mmHg); type: functional

Carbonic anhydrase 12, sequence (O43570 whole entry): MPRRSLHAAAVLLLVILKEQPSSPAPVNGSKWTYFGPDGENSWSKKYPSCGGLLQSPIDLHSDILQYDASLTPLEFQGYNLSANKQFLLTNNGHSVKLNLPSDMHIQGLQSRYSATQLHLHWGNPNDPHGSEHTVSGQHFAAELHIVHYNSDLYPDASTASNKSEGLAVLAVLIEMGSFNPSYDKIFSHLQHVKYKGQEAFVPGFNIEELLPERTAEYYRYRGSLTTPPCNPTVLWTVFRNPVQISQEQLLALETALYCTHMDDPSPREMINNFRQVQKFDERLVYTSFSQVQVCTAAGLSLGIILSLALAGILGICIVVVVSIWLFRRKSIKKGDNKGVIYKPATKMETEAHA
Carbonic anhydrase 4, sequence (P22748 whole entry): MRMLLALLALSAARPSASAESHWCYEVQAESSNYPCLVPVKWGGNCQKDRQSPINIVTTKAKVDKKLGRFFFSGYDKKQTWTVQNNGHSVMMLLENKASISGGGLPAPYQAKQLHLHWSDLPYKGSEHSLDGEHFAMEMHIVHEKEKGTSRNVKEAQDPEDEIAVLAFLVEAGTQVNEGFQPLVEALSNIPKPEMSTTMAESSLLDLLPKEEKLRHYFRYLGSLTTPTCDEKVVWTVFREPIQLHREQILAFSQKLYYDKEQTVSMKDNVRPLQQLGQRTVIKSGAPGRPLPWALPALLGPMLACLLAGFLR
Carbonic anhydrase 1, sequence (P00915 whole entry): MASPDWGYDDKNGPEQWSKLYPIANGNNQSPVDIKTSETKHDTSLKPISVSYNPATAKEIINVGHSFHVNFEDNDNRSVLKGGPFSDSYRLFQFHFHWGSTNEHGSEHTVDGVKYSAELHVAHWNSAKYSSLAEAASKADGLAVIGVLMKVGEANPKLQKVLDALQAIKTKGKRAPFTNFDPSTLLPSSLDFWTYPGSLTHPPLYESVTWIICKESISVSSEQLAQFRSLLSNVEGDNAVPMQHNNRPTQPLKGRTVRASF

Row | SMILES | Ki (Carbonic anhydrase 4) [nM] | Ki (Carbonic anhydrase 9) [nM] | Ki (Carbonic anhydrase 2) [nM] | Ki (Carbonic anhydrase 12) [nM] | solubility [2] [%] | Ki (Carbonic anhydrase 1) [nM] | Activity (Oryctolagus cuniculus [1]) [mmHg] | Activity (Oryctolagus cuniculus [3]) [mmHg]
1 | CCN(CC)CCOC(=O)c1ccc(S(=O)(=O)Nc2nnc(S(N)(=O)=O)s2)cc1 | – | – | 1.4 | – | – | – | – | –
2 | COc1cc(/C=C/C(=O)OCCCCO[N+](=O)[O-])ccc1OC(=O)CCc1ccc(S(N)(=O)=O)cc1 | 139 | 93 | 101 | 87 | – | 395 | – | –
3 | COc1cc(/C=C/C(=O)OCCCCO[N+](=O)[O-])ccc1OC(=O)c1cccc(S(=O)(=O)Nc2nnc(S(N)(=O)=O)s2)c1 | 225 | 177 | 33 | 42 | – | 137 | – | –
4 | NS(=O)(=O)c1ccc(OCCCCCO[N+](=O)[O-])cc1 | 89 | 85 | 71 | 116 | – | 950 | – | –
5 | O=[N+]([O-])O[C@@H]1CO[C@H]2[C@@H]1OC[C@@H]2O [ISOSORBIDE MONONITRATE] | – | – | – | – | – | – | – | 28.4
6 | COc1cc(/C=C/C(=O)OCCCCO[N+](=O)[O-])ccc1OC(=O)c1ccc(S(=O)(=O)Nc2nnc(S(N)(=O)=O)s2)cc1 | 38 | 11 | 14 | 43 | – | 43 | – | –

The next lines start with results.

Row | Ki (Carbonic anhydrase 4) [nM] | Ki (Carbonic anhydrase 9) [nM] | Ki (Carbonic anhydrase 2) [nM] | Ki (Carbonic anhydrase 12) [nM] | solubility [2] [%] | Ki (Carbonic anhydrase 1) [nM] | SMILES | Activity (Oryctolagus cuniculus [1]) [mmHg] | Activity (Oryctolagus cuniculus [3]) [mmHg]
7 | 44 | 165 | 18 | 30 | 2 | 189 | NS(=O)(=O)c1ccc(C(=O)OCCCCO[N+](=O)[O-])cc1 | 20.6 | –
8 | 47 | 11 | 10 | 19 | > 0.3 | 15 | COc1cc(/C=C/C(=O)OCCCCO[N+](=O)[O-])ccc1OC(=O)c1ccc(S(N)(=O)=O)cc1 | – | –
9 | 76 | 25 | 12 | 29 | – | 41 | NS(=O)(=O)c1ccc(OCCCCO[N+](=O)[O-])cc1 | – | –
10 | 154 | 235 | – | 31 | – | 40 | NS(=O)(=O)c1nnc(NS(=O)(=O)c2cccc(C(=O)OCCCCO[N+](=O)[O-])c2)s1 | – | –
11 | 148 | 83 | 88 | 83 | – | 587 | NS(=O)(=O)c1ccc(OCCCO[N+](=O)[O-])cc1 | – | –
12 | 345 | 253 | 198 | 147 | – | 242 | NS(=O)(=O)c1ccc(C(=O)OCc2ccc(CO[N+](=O)[O-])cc2)cc1 | – | –
13 | 46 | 10 | 10 | 31 | – | 32 | NS(=O)(=O)c1nnc(NS(=O)(=O)c2ccc(C(=O)OCCCCO[N+](=O)[O-])cc2)s1 | – | –
